# Source: publication PMC9588787, “Exploring the In situ pairing of human galectins toward synthetic O-mannosylated core M1 glycopeptides of α-dystroglycan” (Scientific Reports, 2022)
# Entries after “also recorded” stand apart in the source; their conditions may differ. Where no end group is shown, it is not given here.
# Assays:
# Gal-9 = test: Glycopeptide microarray lectin binding assay, Gal-9; set-up: species or system human; conditions: compounds immobilised at 20 and/or 200 μM; Gal-9 0.10-32.0 µg/mL, PBS pH 7.4, no reducing agent
# Method: (§1) Following our reported optimized protocol, the binding profile of lectins were investigated using evanescent-field fluorescence-assisted microarray technology to directly monitor the interaction without the wash and dry-up process and rapid exchange of protein solution to evaluate concentration dependence, 0.10–32.0 µg/mL protein. The AO/PC-copolymer microarray slides were deprotected using 2N HCl treatment overnight at rt, rinsed with MilliQ H2O, and dried by centrifugation. […]
# (§2) A silicon rubber sheet with six chambers was attached to the printed slide. […] After 1 h of incubation with the lectin solution at rt in a humidified chamber, the slide was rinsed with washing buffer (reaction buffer with containing 0.05% (v/v) Tween-20) and fluorescence intensity was measured with GlycoStation System. To determine whether additional interactions will be detected at higher lectin concentrations, the reaction buffer solution was carefully removed and replaced with the next lectin test concentration, incubated for 5 min at rt, washed with reaction buffer and then fluorescence intensity was obtained. […]
# (§3) Images of slides were captured in the presence of reaction buffer. The fluorescexcelence intensities obtained were analyzed using ArrayVision 8.0 (GE Healthcare). […]
# Gal-1 [1] = test: Glycopeptide microarray lectin binding assay, Gal-1; set-up: species or system human; conditions: compounds immobilised at 20 and/or 200 μM, quadruplets; labelled Gal-1 0.10-32.0 µg/mL, PBS pH 7.4, no reducing agent, ambient air (partially oxidizing)
# Method: Following our reported optimized protocol, the binding profile of lectins were investigated using evanescent-field fluorescence-assisted microarray technology to directly monitor the interaction without the wash and dry-up process and rapid exchange of protein solution to evaluate concentration dependence, 0.10–32.0 µg/mL protein. The AO/PC-copolymer microarray slides were deprotected using 2N HCl treatment overnight at rt, rinsed with MilliQ H2O, and dried by centrifugation. Then, test compounds were robotically printed using Arduino-based CNC machine handcrafted robot in quadruplets at two concentrations (20 and 200 µM) in 25 mM AcOH-Pyr (pH 5.0), 0.0025% (w/v) Triton X-100 under constant condition (temperature: 20–25 °C and humidity: 35–45 RH). A 25 µg/mL Cyanin3-keto-BSA (Cy3-keto-BSA) was also printed in the slide as grid. Subsequently, the slide was incubated at 80 °C for 1 h to complete the oxime bond formation. Washed once with Milli-Q H2O and dried by centrifugation at 2,000 rpm for 2 min.
# A silicon rubber sheet with six chambers was attached to the printed slide. Next, slide was pretreated with reaction buffer {Phosphate-Buffered Saline solution (PBS, 1X) [10 mM Na2HPO4, 1.8 mM KH2PO4, 2.7 mM KCl, 137 mM NaCl] pH7.4 containing 0.05% (v/v) Tween-20} for 15 min and dried by centrifugation. The PBS (with or without 10 mM DTT) solutions of galectin were prepared and maintained at a cold ice bath before use. Thereafter, a cover glass was set on each chamber and 12 µL of 0.10 µg/mL lectin solution in reaction buffer was added through the gap of the slide and cover. After 1 h of incubation with the lectin solution at rt in a humidified chamber, the slide was rinsed with washing buffer (reaction buffer with containing 0.05% (v/v) Tween-20) and fluorescence intensity was measured with GlycoStation System. To determine whether additional interactions will be detected at higher lectin concentrations, the reaction buffer solution was carefully removed and replaced with the next lectin test concentration, incubated for 5 min at rt, washed with reaction buffer and then fluorescence intensity was obtained. This step was repeated until all the chosen test concentrations were completed (0.32-, 1.00-, 3.20-, 10.0-, and 32.0 µg/mL).
# Images of slides were captured in the presence of reaction buffer. The fluorescexcelence intensities obtained were analyzed using ArrayVision 8.0 (GE Healthcare). For each spot, background correction was applied to get the net intensity, and the average relative fluorescence unit (RFU) was plotted using Microsoft Excel for Microsoft 365. The lectin specificity was identified from high and low RFU values, the error bars being the standard deviation.
# Gal-4 = test: Glycopeptide microarray lectin binding assay, Gal-4; set-up: species or system human; conditions: compounds immobilised at 20 and/or 200 μM; Gal-4 0.10-32.0 µg/mL, PBS pH 7.4, no reducing agent
# Method: as §1, §2, §3
# [2] = system: laminin-111, -121, -211, and -221 with unlabeled Gal-1; test: Laminin–Gal-1 binding assay (trans-bridging on microarray); set-up: species or system human; conditions: 200 μM immobilised compounds; 0.10-32.0 µg/mL Cy3-laminin–unlabeled Gal-1, 32.0 µg/mL extended 30 min
# Method: A 12 µL of premixed Cy3-labeled human recombinant laminin (BroadPharm and Biolamina, respectively) and unlabeled-Gal-1 with final concentration of 0.10 µg/mL was added to the printed test compounds. After 1 h of incubation with the laminin-galectin solution at rt in a humidified chamber, the slide was rinsed with washing buffer and fluorescence intensity was measured with GlycoStation System. To determine whether additional interactions will be detected at higher laminin-Gal-1 concentrations, the reaction buffer solution was carefully removed and replaced with the next test concentration, incubated for 5 min at rt, washed with reaction buffer and then fluorescence intensity was obtained. This step was repeated until all the chosen test concentrations were completed (0.32-, 1.00-, 3.20-, 10.0-, and 32.0 µg/mL). For weak interaction, incubation with 32.0 µg/mL of laminin-Gal-1 solution was extended for 30 min. Slide images were captured and analyzed as described above.
# Gal-1, Gal-4, and Gal-9 = test: Microarray inhibition experiment (methyl-Lac, cellobiose, maltose, acetylated peptide 4); format: binding, human; conditions: for Gal-1 interaction with immobilised compound upon addition of methyl-Lac: Gal-1, Fig. 5b, 2.00 µM to 200 mM methyl-Lac; for Effect of soluble inhibitor on galectin binding to immobilised glycopeptides: 10 µg/mL galectin, sugars 2.00 µM to 200 mM, acetylated peptide 4 100 µM to 5.00 mM
# Method: After 30 min of incubation with the galectin-inhibitor solution at rt in a humidified chamber, the slide was rinsed with washing buffer and fluorescence intensity was measured with GlycoStation System. […] Slide images were captured and analyzed as described above.
# Gal-3 [3] = test: Glycopeptide microarray lectin binding assay, Gal-3; set-up: species or system human; conditions: compounds immobilised at 20 and/or 200 μM; Gal-3 0.10-32.0 µg/mL, PBS pH 7.4, no reducing agent
# Method: as §1, §2, §3
# Gal-1, -3, -4, and -9 = test: Glycopeptide microarray, statements for the galectin test panel as a whole; format: binding, human; conditions: compounds immobilised at 20 and/or 200 μM; galectins 0.10-32.0 µg/mL, PBS pH 7.4, no reducing agent
# Method: as §1, §2, §3
# Gal-1 [4] = test: 1H-15N HSQC NMR chemical shift perturbation of 15N-labeled Gal-1; format: binding, human; conditions: tested concentrations, 0.05 up to 64 equivalents of ligand; 100 µM Gal-1, pH 6.9, 10 mM DTT
# Method: ^15N Gal-1 was expressed in Escherichia coli cells BL21(DE3) from pET-GST/TEV-LGVLFQGP-hLGALS1 vector (VectorBuilder, Japan). The component cells were transformed with an expression vector utilizing the heat shock method. After one night of incubation on LB Agar plate (containing 100 μg/mL ampicillin), a colony harboring the expression construct was selected and then inoculated unto 5 mL Luria Broth (LB) with antibiotic overnight at 37 °C with shaking. The bacterial pellet was then resuspended to a fresh 500 mL M9-labeled (^15N-NH4Cl as nitrogen source) medium containing ampicillin. After that, culture was grown at 37 °C for at least 4 h until OD600 = 0.6–1.2. The cells were then induced with 0.5 mM isopropyl-β-D-1-thiogalactopyranoside (IPTG) overnight at 25 °C. Bacteria expressing ^15N Gal-1 was lysed with a sonicator (for 5 min, 25% duty cycle. 5 output control) in buffer containing 50 mM PBS, pH 7.4, 150 mM NaCl, 2 mM DTT. […] Lectin-binding activity was analyzed by 15N-HQSC with methyl-Lac. […]
# The ^15N-labeled Gal-1 was prepared at 100 µM concentration in 20 mM potassium phosphate buffer at pH 6.9, 50 µM EDTA and 10 mM DTT, made up using H2O/D2O (95:5%). […] Raw data were converted using TopSpin 4.1.3 and were analyzed using NMRFAM-Sparky[71]. […] The perturbation pattern of the Gal-1 (PDB ID: 1GZW) was analyzed and visualized by PyMOL 2.5.0 (http://www.pymol.org).
# laminins = conditions: basal lamina; read-out: Kd of Gal-1 binding to poly-LacNAc structures of laminins; cited from earlier work
# Source text: In the basal lamina, Gal-1 binds to the poly-LacNAc structures of laminins (Kd≈10^−6 M), to maintain glycan recognizing function of Gal-1 in the ECM[61]. During muscle repair, Gal-1 binds directly to laminin and α7β1 integrin modulating the late myoblast fusion. In addition, Gal-1 can dissociate from laminin and cross-link olfactory neurons, forming ne ...
# Gal-3 [5] = conditions: read-out: Kd of interaction with Gal-3; cited from earlier work
# Source text: The glycan-CBP interactions are influenced by not only the type of glycan but also the spatial orientation, carrier scaffold, accessibility, density, and spacing of sugar moieties along the glycoconjugate, to obtain optimum fit within the binding pocket of the receptors[37],[40],[44].
molecule,measurement,setting,value
"5-oxo-hexanoyl-TRGAIIQTPTLGPIQPTRV -NH2 [compound 4, unglycosylated α-DG peptide backbone (…) with ketone linker]","Gal-9 binding, microarray signal intensity (RFU)",Gal-9,interact
same,"Gal-1 binding, microarray signal intensity (RFU)",Gal-1 [1],binding was observed; also recorded: interact
same,"Gal-4 binding, microarray signal intensity (RFU)",Gal-4,interact
same,"Gal-1 trans-bridging of Cy3-laminin to immobilised compound, signal intensity",[2],could anchor laminins
"5-oxo-hexanoyl-TRGAIIQTPTLGPIQPTRV -NH2 [compound 5, mono-core M1 α-DG glycopeptide]",Gal-1 interaction with immobilised compound upon addition of methyl-Lac,"Gal-1, Gal-4, and Gal-9",enhanced interaction
same,"Gal-1 binding, microarray signal intensity (RFU)",Gal-1 [1],did not show significant interaction
same,"Gal-1 trans-bridging of Cy3-laminin to immobilised compound, signal intensity",[2],remarkable signal intensities
"5-oxo-hexanoyl-TRGAIIQTPTLGPIQPTRV -NH2 [compound 6, mono-core M1 α-DG glycopeptide]",Gal-1 interaction with immobilised compound upon addition of methyl-Lac,"Gal-1, Gal-4, and Gal-9",enhanced interaction
same,"Gal-1 binding, microarray signal intensity (RFU)",Gal-1 [1],did not show significant interaction
same,"Gal-1 trans-bridging of Cy3-laminin to immobilised compound, signal intensity",[2],remarkable signal intensities
"5-oxo-hexanoyl-TRGAIIQTPTLGPIQPTRV -NH2 [compound 11, tris-core M1 α-DG glycopeptide]","Gal-1 binding, microarray signal intensity (RFU)",Gal-1 [1],notable decrease in binding interaction
"5-oxo-hexanoyl-TRGAIIQTPTLGPIQPTRV -NH2 [compound 15, bis-LacNAc core M1 α-DG glycopeptide, consecutive glycosylation sites]","Gal-3 binding, microarray signal intensity (RFU)",Gal-3 [3],stronger affinity
"5-oxo-hexanoyl-TRGAIIQTPTLGPIQPTRV -NH2 [compound 18, tris-LacNAc terminated α-DG glycopeptide]","Binding of the tested galectins (panel statement), microarray signal intensity","Gal-1, -3, -4, and -9",lesser interaction
same,"Gal-3 binding, microarray signal intensity (RFU)",Gal-3 [3],did not result in higher intensity
"5-oxo-hexanoyl-TRGAIIQTPTLGPIQPTRV -NH2 [compound 26, α-DG glycopeptide with heterogeneous glycans: LacNAc core M1 and core M1]",Galectin interaction with immobilised compound in the presence of methyl-Lac,"Gal-1, Gal-4, and Gal-9; 200 μM immobilised compounds, 10 µg/mL galectin with 2.00 µM to 200 mM methyl-Lac",significantly reduced interaction
same,"Binding of the tested galectins (panel statement), microarray signal intensity","Gal-1, -3, -4, and -9",high interaction
same,"Gal-1 binding, microarray signal intensity (RFU)",Gal-1 [1],bound
"5-oxo-hexanoyl-TRGAIIQTPTLGPIQPTRV -NH2 [compound 28, α-DG glycopeptide with heterogeneous glycans: sialyl-LacNAc core M1 and LacNAc core M1]","Gal-1 binding, microarray signal intensity (RFU)",Gal-1 [1],bound; also recorded: diminished Gal-1 binding
same,"Gal-4 binding, microarray signal intensity (RFU)",Gal-4,significant reduction in the affinity
same,"Gal-1 trans-bridging of Cy3-laminin to immobilised compound, signal intensity",[2],decrease in the trans-bridging activity
32: acetylated N-terminus unglycosylated α-DG peptide corresponding to 4 (Ac-TRGAIIQTPTLGPIQPTRV) [compound 32],Effect of soluble inhibitor on galectin binding to immobilised glycopeptides,"Gal-1, Gal-4, and Gal-9",minimal effect on the binding
same,Chemical shift perturbation of 15N Gal-1 over the titration,Gal-1 [4],failed to induce any significant deviation in the chemical shift
"O=C[C@H](O)[C@@H](O)[C@H](O[C@@H]1O[C@H](CO)[C@@H](O)[C@H](O)[C@H]1O)[C@H](O)CO [cellobiose, reference compound]",Effect of soluble inhibitor on galectin binding to immobilised glycopeptides,"Gal-1, Gal-4, and Gal-9",minimal effect on the binding
"CO[C@@H]1O[C@H](CO)[C@@H](O[C@@H]2O[C@H](CO)[C@H](O)[C@H](O)[C@H]2O)[C@H](O)[C@H]1O [methyl-Lac, methyl-β-lactoside, reference compound]",Effect of soluble inhibitor on galectin binding to immobilised glycopeptides,"Gal-1, Gal-4, and Gal-9",significantly reduced interaction
same,Chemical shift perturbation of 15N Gal-1 over the titration,Gal-1 [4],shifted the ^1H-^15N HSQC signals corresponding to the residues on S3–L6 regions
Gal-1: prototype homodimeric human galectin,Kd,laminins,~1 µM
"Galβ1,3GalNAcα1-O-Ser/Thr [TF antigen]",Kd,Gal-3 [5],245 µM
